Data on seven compounds can be found in ChEMBL document CHEMBL1201862, “PubChem BioAssay data set” (2004).

Some test systems named below: SF-295; MCF7; SK-MEL-28; 786-0; CCRF-CEM; UACC-62; SF-268; SF-539; OVCAR-5; MDA-MB-435; NCI/ADR-RES; CAKI-1; NCI-H23; A498; HOP-62; MDA-MB-231; COLO 205; SR; K562; HOP-92.
Common to all, as to experiment: NCI-60 cell line screen, 48 h

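Five compound concentrations were applied to cells in 96-well plates for 48 hours; endpoints were derived by simple linear interpolation of the resulting dose-response curve. GI50: concentration for 50% inhibition of growth.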 Active and inactive are the calls of the source. Cut-off read from the data, not from the text of the source: active = GI50 up to about 1.1 µM and inactive = higher.

For `C[N+](C)(C)CC(=O)N/N=C(\Cc1nc2ccc([N+](=O)[O-])cc2nc1O)C(=O)Nc1nc2ccc([N+](=O)[O-])cc2s1`, the GI50 with SF-295 is 51.8 µM (inactive); in the assay on MCF7 it was 29.4 µM (inactive); with SK-MEL-28, > 100 µM (inactive); with 786-0 it was 93.8 µM (inactive); in the assay on CCRF-CEM, 40.9 µM (inactive); in the assay on UACC-62, 62.2 µM (inactive). Moreover, the GI50 in the assay with SF-268 was 34 µM (inactive); in the assay with SF-539, 31.8 µM (inactive); in the assay with OVCAR-5 it was > 100 µM (inactive); with MDA-MB-435 it was 85.1 µM (inactive); in the assay with NCI/ADR-RES, 63.4 µM (inactive); in the assay on CAKI-1 it was 24.6 µM (inactive). Further, the GI50 in the assay with NCI-H23 is 30.7 µM (inactive); in the assay on A498 it was 51.5 µM (inactive); in the assay with HOP-62, 57.9 µM (inactive); in the assay on MDA-MB-231, > 100 µM (inactive); in the assay on COLO 205, 48.8 µM (inactive); in the assay on SR, 44.1 µM (inactive). For the same compound, the GI50 with K562 was 86.3 µM (inactive); with HOP-92, 29 µM (inactive).
Take `COc1ccc(OC)c2c1C=C[C@H](C1(C)SCCS1)C2C(C)=O` (stereo not given in full): the GI50 in the assay with SF-295 is 23.9 µM (inactive); with MCF7, 35.4 µM (inactive); in the assay on SK-MEL-28, 24.8 µM (inactive); with 786-0, 31.7 µM (inactive); in the assay with CCRF-CEM, 27.7 µM (inactive); in the assay with UACC-62, 20.8 µM (inactive). Further, the GI50 in the assay on SF-268 is 29.6 µM (inactive); with SF-539, 23.1 µM (inactive); in the assay with OVCAR-5 it was 21.3 µM (inactive); in the assay on MDA-MB-435 it was 23.9 µM (inactive); with NCI/ADR-RES it was 32.2 µM (inactive); in the assay on CAKI-1, 32.6 µM (inactive). Besides, the GI50 is 22.6 µM (inactive) in the assay with NCI-H23; 26 µM (inactive) in the assay with A498; 39.8 µM (inactive) in the assay on HOP-62; 32.2 µM (inactive) in the assay on MDA-MB-231; > 10 µM (inactive) with COLO 205; 19.6 µM (inactive) in the assay on SR. In addition, the GI50 in the assay on K562 is 32.7 µM (inactive); in the assay with HOP-92 it was 32.8 µM (inactive).
On to `Ic1cccc(/C=C/CN2CCN(CCOC(c3ccccc3)c3ccccc3)CC2)c1`, for which the GI50 is 17.5 µM (inactive) in the assay on SF-295; 14.6 µM (inactive) in the assay on MCF7; 20.8 µM (inactive) in the assay on SK-MEL-28; 15.7 µM (inactive) in the assay on 786-0; 6.5 µM (inactive) with CCRF-CEM; 18.6 µM (inactive) in the assay on UACC-62. Besides, the GI50 with SF-268 was 27.2 µM (inactive); in the assay with SF-539, 17.3 µM (inactive); with OVCAR-5, 16.7 µM (inactive); in the assay with MDA-MB-435 it was 14.4 µM (inactive); in the assay on NCI/ADR-RES it was 16 µM (inactive); in the assay with CAKI-1, 17.5 µM (inactive). Also, the GI50 is 16.2 µM (inactive) with NCI-H23; 16.7 µM (inactive) in the assay on A498; 17 µM (inactive) in the assay with HOP-62; 14 µM (inactive) in the assay on MDA-MB-231; 8.51 µM (inactive) with COLO 205; 4.16 µM (inactive) in the assay on SR. In addition, the values for the GI50 with K562 and in the assay with HOP-92 were 4.62 µM (inactive) and 14.4 µM (inactive), respectively.
Take `CCCCCC/C=C\CCCCCCCCCC1=CC(=O)C=C(OC)C1=O` [IRISQUINONE A]: the GI50 in the assay with SF-295 is 3.6 µM (inactive); in the assay with MCF7, 4.46 µM (inactive); in the assay with SK-MEL-28 it was 11.5 µM (inactive); in the assay on 786-0, 4.68 µM (inactive); in the assay with CCRF-CEM, 1.57 µM (inactive); in the assay with UACC-62, 4.05 µM (inactive). The GI50 was 5.93 µM (inactive) with SF-268; 2.05 µM (inactive) in the assay on SF-539; 5.6 µM (inactive) with OVCAR-5; 3.81 µM (inactive) in the assay with MDA-MB-435; 3.8 µM (inactive) with NCI/ADR-RES; 3.48 µM (inactive) in the assay with CAKI-1. The GI50 in the assay with NCI-H23 is 3.37 µM (inactive); in the assay on A498, 5.82 µM (inactive); with HOP-62, 3.48 µM (inactive); in the assay with MDA-MB-231, 4.36 µM (inactive); with COLO 205 it was 1.63 µM (inactive); in the assay with SR, 2.72 µM (inactive). Also, the GI50 was 0.753 µM (active) with K562 and 2.52 µM (inactive) in the assay with HOP-92.
Take `CC(=O)OC1CC(n2cc(F)c(=O)[nH]c2=O)OC1CO` (stereo not given): the GI50 in the assay on SF-295 was 0.209 µM (active); in the assay on MCF7 it was 0.22 µM (active); in the assay on SK-MEL-28, 15.6 µM (inactive); in the assay on 786-0 it was 0.494 µM (active); in the assay on CCRF-CEM, 0.117 µM (active); in the assay with UACC-62, 0.42 µM (active). For the same compound, the GI50 was 0.0807 µM (active) with SF-268; 0.0418 µM (active) in the assay with SF-539; > 46.7 µM (inactive) in the assay on OVCAR-5; 15.7 µM (inactive) in the assay with MDA-MB-435; 1.93 µM (inactive) with NCI/ADR-RES; 0.818 µM (active) in the assay on CAKI-1. For the same compound, the GI50 was 2 µM (inactive) in the assay on NCI-H23; 0.0693 µM (active) in the assay with A498; 0.152 µM (active) in the assay with HOP-62; > 55.2 µM (inactive) with MDA-MB-231; 8.75 µM (inactive) with COLO 205; 0.604 µM (active) in the assay on SR. Moreover, the GI50 in the assay on K562 was 15.1 µM (inactive); in the assay on HOP-92, 1.49 µM (inactive).
Take `COc1ccc(C2=C3SC=c4ccccc4=C3ON=C2c2ccccc2)cc1`: the GI50 was > 100 µM (inactive) in the assay on SF-295; > 100 µM (inactive) in the assay with MCF7; > 100 µM (inactive) in the assay on SK-MEL-28; > 100 µM (inactive) in the assay with 786-0; 84.3 µM (inactive) in the assay with CCRF-CEM; > 100 µM (inactive) in the assay with UACC-62. Besides, the GI50 in the assay with SF-268, in the assay with SF-539, in the assay on OVCAR-5, in the assay with MDA-MB-435, in the assay with NCI/ADR-RES and in the assay with CAKI-1 was > 100 µM (inactive) throughout. Moreover, the GI50 was > 100 µM (inactive) in the assay on NCI-H23; > 100 µM (inactive) in the assay on A498; > 100 µM (inactive) in the assay on HOP-62; > 100 µM (inactive) in the assay with MDA-MB-231; > 100 µM (inactive) in the assay on COLO 205; 42 µM (inactive) in the assay on SR. For the same compound, the GI50 in the assay on K562 is 22.9 µM (inactive); in the assay on HOP-92, 68.1 µM (inactive).
Take `CCOC(=O)c1ccc(-c2cccs2)[nH]1`: the GI50 in the assay on SF-295 is > 100 µM (inactive); in the assay with MCF7, 53.7 µM (inactive); with SK-MEL-28, > 80.5 µM (inactive); in the assay with 786-0, > 100 µM (inactive); with CCRF-CEM, > 81.3 µM (inactive); with UACC-62, 52.7 µM (inactive). The GI50 was > 92 µM (inactive) with SF-268; > 100 µM (inactive) in the assay with SF-539; > 57 µM (inactive) in the assay on OVCAR-5; 44.3 µM (inactive) in the assay with MDA-MB-435; 42.2 µM (inactive) in the assay on NCI/ADR-RES; > 92.5 µM (inactive) with CAKI-1. For the same compound, the GI50 with NCI-H23 is 67.5 µM (inactive); with A498 it was > 55.5 µM (inactive); in the assay with HOP-62 it was > 66.4 µM (inactive); in the assay on MDA-MB-231, > 61.8 µM (inactive); in the assay on COLO 205, 60.7 µM (inactive); in the assay on SR it was 54.7 µM (inactive). The GI50 is 71.3 µM (inactive) in the assay with K562 and 12.1 µM (inactive) in the assay with HOP-92.
